Measurements reported in patent US20090076012A1, “Modulation of pathogenicity” (priority 2002, published 2009).

Tested on: bioluminescent sensor strain Escherichia coli MT102 (pSB403)
Test: Biosensor assay: quorum sensing inhibition, bioluminescence of the sensor strain
Assay type: cell-based
Conditions: Escherichia coli, 4 h, 3oxo-C6-HSL 100 nM; bioluminescence after 4 hours at 30° C.
Procedure: Quorum sensing inhibition of the compounds was investigated with the aid of the bioluminescent sensor strain Escherichia coli MT102 (pSB403) (Winson et al., FEMS Microbiol. Lett. 163:185-92, 1998). Plasmid pSB403 contains the Photobacterium fischeri luxR gene together with the […] promoter region as a transcriptional fusion to the bioluminescence genes luxCDABE of Photorhabdus luminescence.
Inhibitory studies were conducted in a microtitre dish assay as follows: the E. coli sensor strain grown over night in LB medium (Sambrook et al., Molecular Cloning: A Laboratory Manual. 2nd Edn. Cold Spring Harbor Laboratory, New York, 1989) was diluted 1:4 and grown for another 1 hour at 30° C. After addition of 3oxo-C6-HSL (final concentration 100 nM) 100 μl of an exponential culture suspension were filled in the wells of a FluoroNunc Polysorp microtitre dish. The test compounds were added to the culture in different concentrations and bioluminescence was measured after 4 hours of incubation at 30° C. with a Lamda Fluoro 320 Plus reader (Bio-Tek Instruments). Inhibitor-mediated reduction of light emission was correlated with the value obtained without addition of the test compounds. IC50 values (concentration of inhibitor required for 50% inhibition of the signal compared to the signal without inhibitor) were determined by using a fitting function after drawing a graph of the activities of eight different inhibitor concentrations.

| SMILES | IC50 |
| --- | --- |
| O=C(NNC(=O)c1cccs1)c1ccco1 [Compound 35, Furan-2-carboxylic acid N′-(thiophene-2-carbonyl)-hydrazide] | 50 to 100 µM |
| CCCCCCC(=O)CC(=O)Nc1nccs1 [Compound 127, 3-Oxo-nonanoic acid thiazol-2-ylamide] | > 100 µM |
| CCCCCCC(=O)CC(=O)Nc1nc(C)co1 [Compound 134, 3-Oxo-nonanoic acid (4-methyl-oxazol-2-yl)-amide] | > 100 µM |
| CCCCCCC(=O)CC(=O)Nn1cccn1 [Compound 120, 3-Oxo-nonanoic acid pyrazol-1-ylamide] | > 100 µM |
| Cc1cc(C(=O)Nc2ccnn2C)n(C(C)(C)C)n1 [Compound 13, 2-tert-Butyl-5-methyl-2H-pyrazole-3-carboxylic acid (2-methyl-2H-pyrazol-3-yl)-amide] | > 100 µM |
| CCCCCCC(=O)Nc1ccnn1C [Compound 24, Heptanoic acid (2-methyl-2H-pyrazol-3-yl)-amide] | 1 to 50 µM |
| CCn1nc(C)c(Br)c1C(=O)NNC(=O)c1ccc(Br)s1 [Compound 71, 4Bromo-2-ethyl-5-methyl-2H-pyrazole-3-carboxylic acid N′-(5-bromo-thiophene-2-carbonyl)-hydrazide] | 1 to 50 µM |
| O=C(NNC(=O)c1sc2ccccc2c1Cl)c1ccc(Br)s1 [Compound 62, 3-Chloro-benzo[b]thiophene-2-carboxylic acid N′-(5-bromo-thiophene-2-carbonyl)-hydrazide] | 50 to 100 µM |
| CCOc1ccsc1C(=O)NNC(=O)c1sccc1Br [Compound 56, 3-Bromo-thiophene-2-carboxylic acid N′-(3-ethoxy-thiophene-2-carbonyl)-hydrazide] | 1 to 50 µM |
| CCOc1ccsc1C(=O)NNC(=O)c1sccc1Cl [Compound 44, 3-Chloro-thiophene-2-carboxylic acid N′-(3-ethoxy-thiophene-2-carbonyl)-hydrazide] | > 100 µM |
| CCCCCCC(=O)NNC(=O)c1ccc(Br)s1 [Compound 84, 5-Bromo-thiophene-2-carboxylic acid N′-heptanoyl-hydrazide] | 1 to 50 µM |
| CCCCCCCC(=O)NNC(=O)c1cccnc1Cl [Compound 94, 2-Chloro-nicotinic acid N′-octanoyl-hydrazide] | 1 to 50 µM |
| COC(=O)c1scc(C)c1NC(=O)c1cccs1 [Compound 5, 4-Methyl-3-[(thiophene-2-carbonyl)-amino]-thiophene-2-carboxylic acid methyl ester] | > 100 µM |
| O=C(CCC1CCCC1)NNC(=O)c1ccco1 [Compound 90, Furan-2-carboxylic acid N′-(3-cyclopentyl-propionyl)-hydrazide] | 1 to 50 µM |
| CCCC(=O)NNS(=O)(=O)c1ccc(Cl)s1 [Compound 98, Butyric acid N′-(5-chloro-thiophen-2-sulfonyl)-hydrazide] | 50 to 100 µM |
| O=C(NNC(=O)c1cccs1)c1cccs1 [Compound 46, Thiophene-2-carboxylic acid N′-(thiophene-2-carbonyl)-hydrazide] | 50 to 100 µM |
| CCCCNC(=S)NNC(=O)c1cccs1 [Compound 100, 4-Butyl-1-(thiophene-2-carbonyl)-thiosemicarbazide] | 1 to 50 µM |
| CCOC(=O)CC(=O)NNC(=O)c1sccc1Br [Compound 95] | 1 to 50 µM |
| CCCCCCC(=O)CC(=O)Nc1scc(C)c1C(=O)OCC [Compound 123, 4-Methyl-2-(3-oxo-nonanoylamino)-thiophene-3-carboxylic acid ethyl ester] | > 100 µM |
| O=C(NNC(=O)c1ccc(Br)s1)Nc1c(F)cccc1F [Compound 110, 1-(5-Bromo-thiophene-2-carbonyl)-4-(2,6-difluoro-phenyl)-semicarbazide] | > 100 µM |
| CCCCCCC(=O)Nc1c(Br)cnn1C [Compound 21] | 1 to 50 µM |
| O=C(NNC(=O)c1cccs1)c1ccsc1 [Compound 47, Thiophene-3-carboxylic acid N′-(thiophene-2-carbonyl)-hydrazide] | 1 to 50 µM |
| CCOc1ccsc1C(=O)NNC(=O)c1cccs1 [Compound 45, Thiophene-2-carboxylic acid N′-(3-ethoxy-thiophene-2-carbonyl)-hydrazide] | 1 to 50 µM |
| O=C(NNC(=O)c1cc(Cl)sc1Cl)c1ccco1 [Compound 40, Furan-2-carboxylic acid N′-(2,5-dichloro-thiophene-3-carbonyl)-hydrazide] | 1 to 50 µM |
| CCCCCCC(=O)Nc1cc(-c2cccs2)nn1C [Compound 19, Heptanoic acid (2-methyl-5-thiophen-2-yl-2H-pyrazol-3-yl)-amide] | 1 to 50 µM |

| SMILES | IC50 |
| --- | --- |
| CCCC(=O)NNC(=O)c1ccc(C)s1 [Compound 76, 5-Methyl-thiophene-2-carboxylic acid N′-butyryl-hydrazide] | 50 to 100 µM |
| Cc1cc(C(=O)NNC(=O)c2cccs2)n(C(C)(C)C)n1 [Compound 68, Thiophene-2-carboxylic acid N′-(2-tert-butyl-5-methyl-2H-pyrazole-3-carbonyl)-hydrazide] | > 100 µM |
| CCOc1ccsc1C(=O)NNC(=O)c1ccco1 [Compound 37, Furan-2-carboxylic acid N′-(3-ethoxy-thiophene-2-carbonyl)-hydrazide] | 50 to 100 µM |
| O=C(NNC(=O)c1cccs1)c1ccc(OC(F)(F)F)cc1 [Compound 29, 4-Trifluoromethoxy-benzoic acid N′-(thiophene-2-carbonyl)-hydrazide] | > 100 µM |
| O=C(NNC(=O)c1sccc1Br)c1ccco1 [Compound 39, Furan-2-carboxylic acid N′-(3-bromo-thiophene-2-carbonyl)-hydrazide] | 1 to 50 µM |
| CCCCCCCCCC(=O)CC(=O)Nc1scc(C)c1C(=O)OCC [Compound 124, 4-Methyl-2-(3-oxo-dodecanoylamino)-thiophene-3-carboxylic acid ethyl ester] | > 100 µM |
| O=C(NNC(=O)c1cccs1)c1cccc(Cl)c1 [Compound 31, 3-Chloro-benzoic acid N′-(thiophene-2-carbonyl)-hydrazide] | 50 to 100 µM |
| CCCCCCC(=O)CC(=O)Nc1ccon1 [Compound 130, 3-Oxo-nonanoic acid isoxazol-3-ylamide] | > 100 µM |
| O=C(NNC(=O)c1ccc(Br)s1)Nc1ccccc1CCl [Compound 107, 1-(5-Bromo-thiophene-2-carbonyl)-4-(2-chloromethyl-phenyl)-semicarbazide] | 1 to 50 µM |
| CCCCCCCCCC(=O)CC(=O)Nc1ccon1 [Compound 131, 3-Oxo-dodecanoic acid isoxazol-3-ylamide] | > 100 µM |
| CCCCCCCCCC(=O)CC(=O)Nc1nccs1 [Compound 128, 3-Oxo-dodecanoic acid thiazol-2-ylamide] | > 100 µM |
| Cn1nc(C(C)(C)C)cc1C(=O)NNC(=O)c1ccc(Cl)s1 [Compound 69, 5-tert-Butyl-2-methyl-2H-pyrazole-3-carboxylic acid N′-(5-chloro-thiophene-2-carbonyl)-hydrazide] | 1 to 50 µM |
| CCCCCCC(=O)CC(=O)Nc1cc(C)ns1 [Compound 125, 3-Oxo-nonanoic acid (3-methyl-isothiazol-5-yl)-amide] | > 100 µM |
| CCCCCCC(=O)NNC(=O)c1scc(C)c1Cl [Compound 81, 3-Chloro-4-methyl-thiophene-Z-carboxylic acid N′-heptanoyl-hydrazide] | 1 to 50 µM |
| Cc1ccccc1NC(=O)NNC(=O)c1sc2ccccc2c1Cl [Compound 112, 1-(3-Chloro-benzo[b]thiophene-2-carbonyl)-4-o-tolyl-semi-carbazide] | > 100 µM |
| Cc1ccc(C(=O)NNC(=O)CCCCCBr)s1 [Compound 82, 5-Methyl-thiophene-2-carboxylic acid N′-(6-bromohexanoyl)-hydrazide] | 1 to 50 µM |
| COc1cscc1C(=O)NNC(=O)c1ccc(Cl)cc1 [Compound 30, 4-Chloro-benzoic acid N′-(4-methoxy-thiophene-3-carbonyl)-hydrazide] | > 100 µM |
| CCCCCCCC(=O)NNC(=O)c1c(Br)c(C)nn1CC [Compound 92, 4-Bromo-2-ethyl-5-methyl-2H-pyrazole-3-carboxylic acid N′-octanoyl-hydrazide] | 50 to 100 µM |
| O=C(NNC(=O)c1ccc(Br)s1)Nc1ccc(F)cc1C(F)(F)F [Compound 102, 1-(5-Bromo-thiophene-2-carbonyl)-4-(4-fluoro-2-trifluoromethyl-phenyl)-semicarbazide] | > 100 µM |
| Cc1csc(C(=O)NNC(=O)CCCCCBr)c1Cl [Compound 80, 3-Chloro-4-methyl-thiophene-2-carboxylic acid N′-(6-bromo-hexanoyl)-hydrazide] | 1 to 50 µM |
| CCCCCCC(=O)CC(=O)Nc1cc(C)no1 [Compound 132, 3-Oxo-nonanoic acid (3-methyl-isoxazol-5-yl)-amide] | > 100 µM |
| CCCCCCCCCC(=O)CC(=O)Nc1cc(C)no1 [Compound 133, 3-Oxo-dodecanoic acid (3-methyl-isoxazol-5-yl)-amide] | > 100 µM |
| Cn1nc(-c2ccc(Cl)cc2)cc1NC(=O)CCCCCBr [Compound 16, 6-Bromo-hexanoic acid [5-(4chloro-phenyl)-2-methyl-2H-pyrazol-3-yl]-amide] | 1 to 50 µM |
| COc1ccc(NC(=O)c2cccnc2SC)cn1 [Compound 8, N-(6-Methoxy-pyridin-3-yl)-2-methylsulfanyl-nicotinamide] | > 100 µM |
